Data on 13 compounds can be found in patent US20220313701A1, “MODULATORS OF TREX1” (Constellation Pharmaceuticals, Inc., priority 2019, published 2022).

Some results are limits rather than exact numbers.

Assay [1] has as its target T1, full length human TREX1 (Homo sapiens, UniProt Q9NSU2).
T1 construct: N-terminally His-Tev tagged full length human TREX1; His-Tev (His tag with TEV site) (N); made in house; host or cells: E. coli
T1 sequence (Q9NSU2 1-314): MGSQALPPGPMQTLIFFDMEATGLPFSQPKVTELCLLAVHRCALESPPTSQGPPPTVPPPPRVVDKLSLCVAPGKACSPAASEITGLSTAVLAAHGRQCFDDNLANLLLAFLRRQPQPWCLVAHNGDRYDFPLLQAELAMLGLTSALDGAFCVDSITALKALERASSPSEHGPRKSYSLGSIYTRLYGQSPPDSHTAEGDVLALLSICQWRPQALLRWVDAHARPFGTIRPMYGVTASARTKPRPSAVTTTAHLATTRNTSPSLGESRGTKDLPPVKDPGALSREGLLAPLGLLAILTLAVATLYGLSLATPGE
In words: TREX1 Biochemical Assay (fluorescence assay, degradation of dsDNA substrate). The note with it: 150 pM TREX1, 60 nM dsDNA substrate, 25 minutes at room temperature. In a few lines:
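N-terminally His-Tev-tagged enzyme expressed in E. coli, 150 pM, with 60 nM dual-labelled dsDNA (TEX615/quencher) in pH 7.4 Tris buffer with MgCl2, 1% DMSO; 10-point dose-response, 25 min at room temperature, then EDTA quench. Fluorescence at 615 nm (excitation 570 nm); IC50 from four-parameter fit against pre-quenched and no-inhibitor controls.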

Assay [2] deals with T2, human TREX2 (residues M44-A279) (Homo sapiens, UniProt Q9BQ50).
T2 construct: human TREX2 (residues M44-A279, expressed in E. coli); His-Tev (His tag with TEV site) (N); made in house; host or cells: E. coli
T2 sequence (Q9BQ50 44-279 isoform Q9BQ50-1): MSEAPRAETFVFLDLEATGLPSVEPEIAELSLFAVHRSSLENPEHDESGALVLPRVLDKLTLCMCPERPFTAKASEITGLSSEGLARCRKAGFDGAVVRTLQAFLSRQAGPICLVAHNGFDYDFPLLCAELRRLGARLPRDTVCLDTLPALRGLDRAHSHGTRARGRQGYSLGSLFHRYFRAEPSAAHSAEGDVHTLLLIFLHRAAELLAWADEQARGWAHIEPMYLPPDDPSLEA
Description: TREX2 Biochemical Assay (fluorescence assay, degradation of dsDNA substrate). To be noted: 2.5 nM TREX2, 60 nM dsDNA substrate, 25 minutes at room temperature. In a few lines:
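Final conditions: 2.5 nM His-Tev-tagged TREX2 (E. coli-expressed), 60 nM fluorophore/quencher-labelled dsDNA, 50 mM Tris pH 7.4, 150 mM NaCl, 100 mM MgCl2, 1% DMSO; 10-point compound dose-response. Incubated 25 min at room temperature, then EDTA-quenched; fluorescence read at ex 570/em 615 nm. IC50 from four-parameter fit against pre-quenched and no-inhibitor controls.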

For orientation: IC50 means the concentration that gives 50% inhibition. A lower IC50 goes with inhibition by little substance. Regarding `Cc1nn(C)cc1-c1cncc(N2CCC(O)(c3ccc(F)cc3)CC2)n1` [Example 8, 1-(6-(1,3-dimethyl-1H-pyrazol-4-yl)pyrazin-2-yl)-4-(4-fluorophenyl)piperidin-4-ol], the IC50 is 0.1 to 1 µM in assay [1] and greater than 100 µM in assay [2].
Consider `Cc1nc(N2CCC(O)(c3ccc(F)c(F)c3)CC2)cc(N(C)C2(c3ccccn3)CC2)n1` [Example 108, 4-(3,4-difluorophenyl)-1-(2-methyl-6-(methyl(1-(pyridin-2-yl)cyclopropyl)amino)pyrimidin-4-yl)piperidin-4-ol], for which the IC50 was 0.1 to 1 µM in assay [1] and greater than 100 µM in assay [2].
On to `Cc1nn(C)cc1-c1cc(C(N)=O)cc(N2CCC(O)(c3ccc(F)c(Cl)c3)CC2)n1` [Example 94, 2-(4-(3-chloro-4-fluorophenyl)-4-hydroxypiperidin-1-yl)-6-(1,3-dimethyl-1H-pyrazol-4-yl)isonicotinamide], for which the IC50 in assay [1] is 0.1 to 1 µM; in assay [2], greater than 100 µM.
Taken in the same sequence, the figures for `CN1CCN(C(=O)c2cncc(N3CCC(O)(c4ccc(F)cc4)CC3)n2)CC1` [Example 67, (6-(4-(4-fluorophenyl)-4-hydroxypiperidin-1-yl)pyrazin-2-yl)(4-methylpiperazin-1-yl)methanone] were greater than 10 µM and greater than 100 µM.
In the case of `CN(C)CCCNC(=O)c1cncc(N2CCC(O)(c3ccc(F)cc3)CC2)n1` [Example 70, N-(3-(dimethylamino)propyl)-6-(4-(4-fluorophenyl)-4-hydroxypiperidin-1-yl)pyrazine-2-carboxamide], the results for the concentration for half-maximal inhibition (IC50) in assay [1] and in assay [2] were greater than 10 µM and greater than 100 µM, respectively.
As to `OC1(c2ccncc2)CCN(c2cncc(-n3cccn3)n2)CC1` [Example 76, 1-(6-(1H-pyrazol-1-yl)pyrazin-2-yl)-4-(pyridin-4-yl)piperidin-4-ol], the IC50 in assay [1] was greater than 10 µM; in assay [2], greater than 100 µM.
Take `N#Cc1cccc(-c2cncc(N3CCC(O)(c4ccc(F)cc4)CC3)n2)c1` [Example 24, 3-(6-(4-(4-fluorophenyl)-4-hydroxypiperidin-1-yl)pyrazin-2-yl)benzonitrile]: the IC50 is greater than 10 µM in assay [1] and greater than 100 µM in assay [2].
Turning to `OC1(c2ccc(F)cc2)CCN(c2ccc3ccccc3n2)CC1` [Example 83, 4-(4-fluorophenyl)-1-(quinolin-2-yl)piperidin-4-ol], the IC50 in assay [1] was greater than 10 µM; in assay [2], greater than 100 µM.
Consider `Cn1cc(-c2cncc(N3CCC(O)(CCc4ccccc4)CC3)n2)cn1` [Example 6, 1-(6-(1-methyl-1H-pyrazol-4-yl)pyrazin-2-yl)-4-phenethylpiperidin-4-ol], for which the IC50 in assay [1] was greater than 10 µM; in assay [2], greater than 100 µM.
As for `OC1(c2ccc(F)cc2)CCN(c2cncc(N3CCCC3)n2)CC1` [Example 78, 4-(4-fluorophenyl)-1-(6-(pyrrolidin-1-yl)pyrazin-2-yl)piperidin-4-ol], the values for the IC50 in assay [1] and in assay [2] were greater than 10 µM and greater than 100 µM, respectively.
For the compound `Cc1nn(C)cc1-c1cc(C(F)(F)F)cc(N2CCC(O)(c3ccc(F)c(F)c3)CC2)n1` [Example 46, 4-(3,4-difluorophenyl)-1-(6-(1,3-dimethyl-1H-pyrazol-4-yl)-4-(trifluoromethyl)pyridin-2-yl)piperidin-4-ol], the IC50 is 0.1 to 1 µM in assay [1] and greater than 100 µM in assay [2].
Taken in the same sequence, the figures for `OC1(c2ccccc2)CCN(c2cncc(-n3cccn3)n2)CC1` [Example 73, 1-(6-(1H-pyrazol-1-yl)pyrazin-2-yl)-4-phenylpiperidin-4-ol] were greater than 10 µM and greater than 100 µM.
Take `Cc1cc(C2(O)CCN(c3cncc(-c4cn(C)nc4C)n3)CC2)ccc1F` [Example 92, 1-(6-(1,3-dimethyl-1H-pyrazol-4-yl)pyrazin-2-yl)-4-(4-fluoro-3-methylphenyl)piperidin-4-ol]: the IC50 in assay [1] was 0.1 to 1 µM; in assay [2], greater than 100 µM.
